Reference: US10493070B2 (priority 2016, dated 2019)

system: recombinant NL4-3 virus (NLRluc, Renilla luciferase in nef, Gag P373S); assay: HIV cell culture assay (Renilla luciferase reporter virus in MT-2 cells); assay type: cell-based; settings: Renilla, NL43, read-out: 10% FBS EC50, 10% FBS, class symbols A/B/C
Procedure, shortened: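 MT-2 cells infected with NL4-3 reporter virus (Renilla luciferase replacing part of nef, Gag P373S), made by 293T transfection and titered in MT-2 cells by luciferase. Infection runs 4–5 days with serial inhibitor dilutions. Antiviral activity read as Renilla luciferase activity (Dual Luciferase reagents).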

| SMILES | EC50 |
| --- | --- |
| CC1(C)C(c2ccc(C(=O)O)cc2)=CC[C@]2(C)CN(c3cc(N)cc(-c4nnn(CCN5CCS(=O)(=O)CC5)n4)c3)CC=C12 [Example B3, (S)-4-(2-(3-amino-5-(2-(2-(1,1-dioxidothiomorpholino)ethyl)-2H-tetrazol-5-yl)phenyl)-5,5,8a-trimethyl-1,2,3,5,8,8a-hexahydroisoquinolin-6-yl)benzoic acid] | > 3 µM |
| CC1(C)C(c2ccc(C(=O)O)cc2)=CC[C@]2(C)CN(c3ccc(-c4nnn(CCN5CCS(=O)(=O)CC5)n4)cc3)CC=C12 [Example B5] | > 3 µM |
| CC1(C)C(c2ccc(C(=O)O)cc2)=CC[C@]2(C)CN(c3cc(F)cc(-c4nn[nH]n4)c3)CC=C12 [Example B7] | > 3 µM |
| CC1(C)C(c2ccc(C(=O)O)cc2)=CC[C@]2(C)CN(c3cc(F)cc(-c4nnn(CCN5CCS(=O)(=O)CC5)n4)c3)CC=C12 [Example B8] | < 0.5 µM |
| CC1(C)C(c2ccc(C(=O)O)cc2)=CC[C@]2(C)CN(c3ccc(C(=O)O)cc3)CC=C12 [Example B10, (S)-4,4′-(5,5,8a-trimethyl-3,5,8,8a-tetrahydroisoquinoline-2,6(1H)-diyl)dibenzoic acid] | > 3 µM |
| CC1(C)C(c2ccc(C(=O)O)cc2)=CC[C@]2(C)CN(c3ncccn3)CC=C12 [Example B11] | > 3 µM |
| CC1(C)C(c2ccc(C(=O)O)cc2)=CC[C@]2(C)CN(c3ncc(C(=O)O)s3)CC=C12 [Example B12] | > 3 µM |
| CCOC(=O)c1cnc(N2CC=C3C(C)(C)C(c4ccc(C(=O)O)cc4)=CC[C@]3(C)C2)s1 [Example B14] | 0.5 to 3 µM |
| CC1(C)C(c2ccc(C(=O)O)cc2)=CC[C@]2(C)CN(c3cc(C(=O)O)cc([N+](=O)[O-])c3)CC=C12 [Example B15] | > 3 µM |
| CC1(C)C(c2ccc(C(=O)O)cc2)=CC[C@]2(C)CN(c3ccc(C(N)=O)cc3)CC=C12 [Example B17] | > 3 µM |
| CC1(C)C(c2ccc(C(=O)O)cc2)=CC[C@]2(C)CN(C(=O)C(=O)N3CCC[C@H]3C(=O)NCCN3CCS(=O)(=O)CC3)CC[C@@H]12 [Example C1, 4-((4aS,8aS)-2-(2-((S)-2-((2-(1,1-dioxidothiomorpholino)ethyl)carbamoyl)pyrrolidin-1-yl)-2-oxoacetyl)-5,5,8a-trimethyl-1,2,3,4,4a,5,8,8a-octahydroisoquinolin-6-yl)benzoic acid] | > 3 µM |
| CC1(C)C(c2ccc(C(=O)O)cc2)=CC[C@]2(C)CN(C(=O)C(=O)N3CCC[C@H]3C(=O)NCCCN3CCS(=O)(=O)CC3)CC[C@@H]12 [Example C2, 4-((4aS,8aS)-2-(2-((S)-2-((3-(1,1-dioxidothiomorpholino)propyl)carbamoyl)pyrrolidin-1-yl)-2-oxoacetyl)-5,5,8a-trimethyl-1,2,3,4,4a,5,8,8a-octahydroisoquinolin-6-yl)benzoic acid] | > 3 µM |

same assay, conditions: Renilla, NL43, read-out: 10% FBS EC50, 10% FBS, numeric values

| SMILES | EC50 |
| --- | --- |
| CC1(C)C(c2ccc(C(=O)O)cc2)=CC[C@]2(C)CN(c3cc(NC(=O)CCN4CCS(=O)(=O)CC4)cc(-c4nnn(CCN5CCS(=O)(=O)CC5)n4)c3)CC=C12 [Example B4, (S)-4-(2-(3-(2-(2-(1,1-dioxidothiomorpholino)ethyl)-2H-tetrazol-5-yl)-5-(3-(1,1-dioxidothiomorpholino)propanamido)phenyl)-5,5,8a-trimethyl-1,2,3,5,8,8a-hexahydroisoquinolin-6-yl)benzoic acid] | 1.7 µM |
| CC1(C)C(c2ccc(C(=O)O)cc2)=CC[C@]2(C)CN(c3ccccc3-c3nnn(CCN4CCS(=O)(=O)CC4)n3)CC=C12 [Example B6] | 0.045 µM |
| CC1(C)C(c2ccc(C(=O)O)cc2)=CC[C@]2(C)CN(c3cc(O)cc(-c4nnn(CCN5CCS(=O)(=O)CC5)n4)c3)CC=C12 [Example B9] | 1.17 µM |
| COc1ccnc(N2CC=C3C(C)(C)C(c4ccc(C(=O)O)cc4)=CC[C@]3(C)C2)n1 [Example B13] | 2.7 µM |
| CC1(C)C(c2ccc(C(=O)O)cc2)=CC[C@]2(C)CN(c3nc(C(=O)O)cs3)CC=C12 [Example B16] | 1.48 µM |
| CC1(C)C(c2ccc(C(=O)O)cc2)=CC[C@]2(C)CN(C3CCC(CN)(c4ccccc4)CC3)CC=C12 (stereo partly drawn) [Example C3, (S)-4-(2-(4-(aminomethyl)-4-phenylcyclohexyl)-5,5,8a-trimethyl-1,2,3,5,8,8a-hexahydroisoquinolin-6-yl)benzoic acid] | 0.15 µM |
| CC1(C)C(c2ccc(C(=O)O)cc2)=CC[C@]2(C)CN(C3CCC(CN(CCN4CCS(=O)(=O)CC4)CCN4CCS(=O)(=O)CC4)(c4ccccc4)CC3)CC=C12 (stereo partly drawn) [Example C4, (S)-4-(2-(4-((bis(2-(1,1-dioxidothiomorpholino)ethyl)amino)methyl)-4-phenylcyclohexyl)-5,5,8a-trimethyl-1,2,3,5,8,8a-hexahydroisoquinolin-6-yl)benzoic acid] | > 3 µM |
